One experiment concerns T-24. In words: Antiproliferative activity against human T24 cells assessed as reduction in cell viability incubated for 48 hrs by MTT assay. In kind it is functional, cell-based. The conditions noted are these: T-24, 48 h.
The next experiment concerns DNA. Briefly: Binding affinity to Escherichia coli supercoiled pBR322 DNA assessed as DNA intercalation at 0.5 to 10 uM after 3 hrs by ethidium bromide staining-based agarose gel electrophoresis analysis. In kind it is nucleic-acid assay.
Experiment [1] deals with MGC-803. Briefly: Induction of DNA damage in human MGC803 cells assessed as increase in gamma-H2AX expression at 2.5 uM after 24 hrs by Western blot analysis. In kind it is functional, cell-based. A general note: A western blot detects proteins with antibodies after separation by electrophoresis.
Another experiment deals with Quadruplex DNA. Briefly: Binding affinity to human HTG21 G-quadruplex DNA assessed as Stern-Volmer quenching constant by fluorometric titration assay. In kind it is nucleic-acid assay.
Experiment [2] concerns MGC-803. In words: Cell cycle arrest in human MGC803 cells assessed as accumulation of cells at G2/M phase at 1 uM incubated for 48 hrs by propidium iodide staining-based flow cytometry (reference value: 13.07%). In kind it is functional. (In general: A flow cytometer gives signals particle by particle.)
In experiment [3] the test system is MGC-803. In words: Induction of apoptosis in human MGC803 cells assessed as necrotic cells at 1 uM incubated for 24 hrs by Annexin V-FITC/propidium iodide staining based flow cytometry (reference value: 1.81 +/- 0.09 %). It is filed as functional.

Activity calls are given as the source filed them. The rule behind the calls is not given here.

Experimental findings from ChEMBL document CHEMBL4346660, “Cryptolepine and aromathecin based mimics as potent G-quadruplex-binding, DNA-cleavage and anticancer agents: Design, synthesis and DNA targeting-induced apoptosis” (Eur J Med Chem, 2019) are described below.

A word on the IC50: it is the midpoint of a concentration-inhibition curve.

`CN(C)CCCNc1c2c(nc3ccc(F)cc13)-c1ccccc1C2`: in the experiment on T-24, the IC50 stood at 0.84 µM. Besides, the outcome in the experiment with DNA and in the experiment on MGC-803 [1] was Active. Besides, the Kq in the experiment with Quadruplex DNA worked out at 1.56 ×10⁷ No_unit. Besides, the Activity with MGC-803 [2] amounted to 23.02%; in the experiment on MGC-803 [3] it was 4.69%.
